The target in this test is T1, SUMO (Homo sapiens, UniProt Q9UBT2).
T1 sequence (Q9UBT2 1-640): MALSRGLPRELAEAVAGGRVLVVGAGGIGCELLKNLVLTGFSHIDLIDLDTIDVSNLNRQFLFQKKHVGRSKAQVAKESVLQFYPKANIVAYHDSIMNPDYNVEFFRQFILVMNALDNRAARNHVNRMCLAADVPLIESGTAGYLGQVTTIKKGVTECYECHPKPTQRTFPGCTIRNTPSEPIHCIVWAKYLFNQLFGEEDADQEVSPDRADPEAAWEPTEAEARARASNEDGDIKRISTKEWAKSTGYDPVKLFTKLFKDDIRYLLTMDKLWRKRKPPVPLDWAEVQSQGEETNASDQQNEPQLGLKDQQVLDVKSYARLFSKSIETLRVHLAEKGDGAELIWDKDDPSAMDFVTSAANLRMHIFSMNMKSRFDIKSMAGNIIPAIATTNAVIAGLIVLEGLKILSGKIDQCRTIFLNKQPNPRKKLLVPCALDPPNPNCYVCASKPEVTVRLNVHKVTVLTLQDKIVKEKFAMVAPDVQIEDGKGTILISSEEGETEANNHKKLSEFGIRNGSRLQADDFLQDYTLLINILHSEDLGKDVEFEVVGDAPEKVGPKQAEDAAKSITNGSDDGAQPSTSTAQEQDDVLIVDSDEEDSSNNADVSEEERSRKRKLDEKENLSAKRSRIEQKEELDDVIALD
T1 sequence (Q9UBE0 1-346 partner): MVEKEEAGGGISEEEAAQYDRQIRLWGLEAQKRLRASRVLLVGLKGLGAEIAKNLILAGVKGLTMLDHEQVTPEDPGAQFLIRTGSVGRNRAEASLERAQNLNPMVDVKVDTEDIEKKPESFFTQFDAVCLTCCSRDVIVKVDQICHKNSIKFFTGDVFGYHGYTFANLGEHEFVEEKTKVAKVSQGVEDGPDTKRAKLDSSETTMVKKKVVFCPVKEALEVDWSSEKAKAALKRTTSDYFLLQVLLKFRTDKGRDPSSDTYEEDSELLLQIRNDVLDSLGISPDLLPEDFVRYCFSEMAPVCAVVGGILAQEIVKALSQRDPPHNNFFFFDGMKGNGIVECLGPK
As to the kind of experiment: SUMO activity (Table I, biological activities). The class given is biochemical. Further details: key: + (less active); ++ (active); +++ (most active).

Regarding `CCOc1cccc(NC(Cc2ccccc2)C23C=CC(O2)C(C(=O)NC)=C3C(=O)OC)c1` (stereo not drawn) [Compound 250], the SUMO result is on record as “++”.

`COC(=O)C1=C(C(=O)OC)C2(C(Cc3ccc(OC(C)C)cc3)Nc3ccccc3)C=CC1O2` (stereo not drawn) [Compound 650]: the SUMO result is given as “++”.

Consider `COC(=O)C1=C(C(=O)OC)C2(C(Cc3ccccc3)N(C)c3c(F)cccc3F)C=CC1O2` (stereo not drawn) [Compound 237], for which the SUMO entry is given as “+”.

In the case of `COC(=O)C1=C(C(=O)Nc2ccc(N3CCN(C)CC3)cc2)C2C=CC1(C(Cc1ccccc1)Nc1ccccc1)O2` (stereo not drawn) [Compound 291], the SUMO result is reported as “++”.

In the case of `COC(=O)C1=C(C(=O)NC2CCOCC2)C2C=CC1(C(Cc1ccccc1)Nc1ccccc1)O2` (stereo not drawn) [Compound 275], the SUMO result was “+++”.

For `C#CCNC(=O)C1=C(C(=O)OC)C2(C(Cc3ccccc3)Nc3ccccc3)C=CC1O2` (stereo not drawn) [Compound 155], the SUMO result is “++”.

For the compound `O=C(O)C1=C(C(=O)Nc2ccccc2)C2C=CC1(C(Cc1ccccc1)Nc1ccccc1)O2` (stereo not drawn) [Compound 174], the SUMO entry is given as “+”.

For the compound `COC(=O)C1=C(C(=O)Nc2ccc(C)c(F)c2)C2CCC1(C(Cc1ccccc1Cl)Nc1ccccc1)O2` (stereo not drawn) [Compound 692], the SUMO result was “+”.

For the compound `COC(=O)C1=C(C(=O)OC)C2(C(Cc3ccccc3)Nc3ccc(F)cc3)C=CC1O2` (stereo not drawn) [Compound 273], the SUMO result is given as “++”.

For `COC(=O)C1=C(C(=O)Nc2ccc(Oc3ccccc3)cc2)C2C=CC1(C(Cc1ccccc1)Nc1ccccc1)O2` (stereo not drawn) [Compound 296], the SUMO entry is “++”.

On to `COC(=O)C1=C(C(=O)NC2CCN(c3ccccc3)CC2)C2C=CC1(C(Cc1ccccc1)Nc1ccccc1)O2` (stereo not drawn) [Compound 290], for which the SUMO entry was “+”.

As to `COC(=O)C1=C(C(=O)OC)C2(C(Cc3ccc(C)cc3)Nc3ccccc3)C=CC1O2` (stereo not drawn) [Compound 627], the SUMO entry is given as “+++”.

As for `COC(=O)C1=C(C(=O)OC)C2(C(Cc3ccccc3)Oc3ccccc3)C=CC1O2` (stereo not drawn) [Compound 271], the SUMO entry is on record as “++”.

Take `COC(=O)C1=C(C(=O)OC)C2(C(Cc3ccccc3Cl)Nc3ccc(F)cc3)C=CC1O2` (stereo not drawn) [Compound 673]: the SUMO entry is reported as “++”.

For the compound `COC(=O)C1=C(C(=O)NC2CCN(C)CC2)C2CCC1(C(Cc1ccccc1)Nc1cc(F)cc(F)c1)O2` (stereo not drawn) [Compound 303], the SUMO result is reported as “++”.

Turning to `COC(=O)C1=C(C(=O)OC)C2(C(Cc3ccc(C(C)C)cc3)Nc3ccccc3)C=CC1O2` (stereo not drawn) [Compound 670], the SUMO result is listed as “++”.

On to `COC(=O)C1=C(C(=O)Nc2ccc(C)c(F)c2)C2C=CC1(C(Cc1ccccc1)Oc1cccnc1)O2` (stereo not drawn) [Compound 484], for which the SUMO result was “+”.

As to `COC(=O)C1=C(C(=O)OC)C2(C(Cc3ccccc3F)Nc3cc(F)cc(F)c3)C=CC1O2` (stereo not drawn) [Compound 454], the SUMO entry is “+++”.

Turning to `CCOC(=O)C1=C(C(=O)OCC)C2(C(Cc3ccccc3)Nc3c(F)cccc3F)C=CC1O2` (stereo not drawn) [Compound 230], the SUMO entry is recorded as “++”.

Consider `COC(=O)C1=C(C(=O)Nc2ccn(C)n2)C2C=CC1(C(Cc1ccccc1)Nc1ccccc1)O2` (stereo not drawn) [Compound 197], for which the SUMO result is given as “++”.

With `COC(=O)C1=C(C(=O)OC)C2(C(Cc3ccc(-c4ccccc4)cc3)Nc3ccccc3)C=CC1O2` (stereo not drawn) [Compound 677], the SUMO entry is on record as “++”.

In the case of `COC(=O)C1=C(C(=O)OC)C2(C(Cc3ccc(-c4cc[nH]n4)cc3)Nc3ccccc3)C=CC1O2` (stereo not drawn) [Compound 698], the SUMO result is listed as “+++”.

`COC(=O)C1=C(C(=O)OC)C2(C(Nc3ccccc3)c3ccc4cc(OC)ccc4c3)C=CC1O2` (stereo not drawn) [Compound 653]: the SUMO result is given as “++”.

Take `COC(=O)C1=C(C(=O)OC)C2(C(Cc3ccc(Cl)c(Cl)c3)Nc3ccccc3)C=CC1O2` (stereo not drawn) [Compound 642]: the SUMO entry was “+++”.

For the compound `COC(=O)C1=C(C(=O)OC)C2(C(Nc3ccccc3)c3ccc4nc(Cl)ccc4c3)C=CC1O2` (stereo not drawn) [Compound 675], the SUMO entry was “++”.

Take `COC(=O)C1=C(C(=O)OC)C2(C(Cc3c(Cl)cccc3Cl)Nc3ccccc3)C=CC1O2` (stereo not drawn) [Compound 657]: the SUMO result is “++”.

As for `COC(=O)C1=C(C(=O)OC)C2(C(Cc3ccccc3Cl)N[S@+]([O-])C(C)(C)C)CCC1O2` (stereo partly drawn) [Compound 694], the SUMO entry is reported as “++”.

As for `CCOC(=O)C1=C(C(=O)NC2CCN(C)CC2)C2(CO)C=CC1(C(Cc1ccccc1)Nc1ccccc1)O2` (stereo not drawn) [Compound 269], the SUMO result was “++”.

As for `COC(=O)C1=C(C(=O)OC)C2(C(Cc3ccccc3Cl)Nc3cccc(OCc4ccccc4)c3)C=CC1O2` (stereo not drawn) [Compound 674], the SUMO entry is “++”.

On to `CCOc1cccc(NC(Cc2ccccc2)C23C=CC(O2)C(C(=O)O)=C3C(=O)OC)c1` (stereo not drawn) [Compound 246], for which the SUMO entry is given as “+”.

For the compound `COC(=O)C1=C(C(=O)OC)C2(C(Cc3ccc(CC4CCOCC4)cc3)Nc3ccccc3)C=CC1O2` (stereo not drawn) [Compound 676], the SUMO entry is on record as “++”.

Regarding `COC(=O)C1=C(C(=O)OC)C2(C(Cc3ccccc3Cl)Nc3cccc(Oc4ccccc4)c3)C=CC1O2` (stereo not drawn) [Compound 672], the SUMO entry was “++”.

For the compound `COC(=O)C1=C(C(=O)OC)C2(C(Cc3ccccc3Cl)Nc3ccccc3)C=CC1O2` (stereo not drawn) [Compound 640], the SUMO entry is on record as “+++”.

In the case of `COC(=O)C1=C(C(=O)Nc2ccc(C)c(F)c2)C2C=CC1(C(Cc1ccccc1)Nc1ccc(F)cc1)O2` (stereo not drawn) [Compound 346], the SUMO entry was “++”.

For the compound `CCOC(=O)C1=C(C(=O)Nc2cccc(F)c2C)C2C=CC1(C(Nc1ccccc1)c1ccc(CN3CCOCC3)cc1)O2` (stereo not drawn) [Compound 603], the SUMO entry was “++”.

Turning to `COC(=O)C1=C(C(=O)OC)C2(C(Cc3ccc(OC)cc3)Nc3ccccc3)C=CC1O2` (stereo not drawn) [Compound 633], the SUMO result is listed as “+++”.

In the case of `COC(=O)C1=C(C(=O)NC2CCN(C(=O)OC(C)(C)C)CC2)C2C=CC1(C(Cc1ccccc1)Nc1cc(F)cc(F)c1)O2` (stereo not drawn) [Compound 255], the SUMO result is “+”.

As for `COC(=O)C1=C(C(=O)NNc2ccccc2)C2(C)C=CC1(C(Cc1ccccc1)Nc1ccccc1)O2` (stereo not drawn) [Compound 295], the SUMO entry is “++”.

Consider `COC(=O)C1=C(C(=O)OC)C2(C(Nc3ccccc3)c3ccc(CN4CCOCC4)cc3)C=CC1O2` (stereo not drawn) [Compound 413], for which the SUMO result was “+”.

In the case of `COC(=O)C1=C(C(=O)OC)C2(C(Cc3ccccc3)Nc3ccccc3F)C=CC1O2` (stereo not drawn) [Compound 270], the SUMO entry was “++”.

Consider `COC(=O)C1=C(C(=O)OC)C2(C(Cc3ccc(CC(C)C)cc3)Nc3ccccc3)C=CC1O2` (stereo not drawn) [Compound 656], for which the SUMO entry is recorded as “++”.

As to `COC(=O)C1=C(C(N)=O)C2(C)C=CC1(C(Cc1ccccc1)Nc1ccccc1)O2` (stereo not drawn) [Compound 294], the SUMO result is given as “++”.

For `CCOC(=O)C1=C(C(=O)OCC)C2(C(Cc3ccccc3)Nc3cc(F)cc(F)c3)C=CC1O2` (stereo not drawn) [Compound 234], the SUMO entry is on record as “++”.

Take `COC(=O)C1=C(C(=O)OC)C2(C(Nc3ccccc3)C3CCOCC3)C=CC1O2` (stereo not drawn) [Compound 192]: the SUMO result is “++”.

As to `COC(=O)C1=C(C(=O)NCCN2CCOCC2)C2C=CC1(C(Cc1ccccc1)Nc1ccccc1)O2` (stereo not drawn) [Compound 222], the SUMO result is reported as “+++”.

As for `COC(=O)C1=C(C(=O)OC)C2(C(Nc3ccccc3)c3cccc4ccccc34)C=CC1O2` (stereo not drawn) [Compound 637], the SUMO result is on record as “+++”.

`COC(=O)C1=C(C(=O)OC)C2(C(Cc3ccccc3C(F)(F)F)Nc3ccccc3)C=CC1O2` (stereo not drawn) [Compound 658]: the SUMO result is listed as “++”.

Turning to `COC(=O)C1=C(C(=O)OC)C2(C(Cc3ccc4ccccc4c3)Nc3ccccc3)C=CC1O2` (stereo not drawn) [Compound 630], the SUMO entry was “+++”.

With `COC(=O)C1=C(C(=O)N2CCN(C)CC2)C2C=CC1(C(Cc1ccccc1)Nc1ccccc1)O2` (stereo not drawn) [Compound 164], the SUMO entry is “+”.

Regarding `CCCCC(Nc1ccccc1)C12C=CC(O1)C(C(=O)OC)=C2C(=O)OC` (stereo not drawn) [Compound 210], the SUMO entry was “+++”.

Regarding `COC(=O)C1=C(C(=O)OC)C2(C(Cc3cccc(Cl)c3)Nc3ccccc3)C=CC1O2` (stereo not drawn) [Compound 663], the SUMO result is “++”.

Regarding `COC(=O)C1=C(C(=O)Nc2ccc(OC)nc2)C2C=CC1(C(Cc1ccccc1)Nc1ccccc1)O2` (stereo not drawn) [Compound 199], the SUMO entry is “++”.

Turning to `CCc1ccc(CC(Nc2ccccc2)C23C=CC(O2)C(C(=O)OC)=C3C(=O)OC)cc1` (stereo not drawn) [Compound 655], the SUMO result is listed as “++”.

As for `COC(=O)C1=C(C(=O)Nc2ccncc2)C2C=CC1(C(Cc1ccccc1)Nc1cc(F)cc(F)c1)O2` (stereo not drawn) [Compound 206], the SUMO entry is “+”.

Consider `C=CC(C)(C)C(Nc1ccccc1)C12C=CC(O1)C(C(=O)OC)=C2C(=O)OC` (stereo not drawn) [Compound 188], for which the SUMO result is “++”.

Turning to `COC(=O)C1=C(C(=O)OC)C2(C(Cc3cccc(OC)c3)Nc3ccccc3)C=CC1O2` (stereo not drawn) [Compound 636], the SUMO result was “+++”.

For `NC(=O)C1=C(C(N)=O)C2(C(Cc3ccccc3)Nc3ccccc3)C=CC1O2` (stereo not drawn) [Compound 202], the SUMO result is “+”.
